In US8952024B2, “Herbicidal pyrimidone derivatives” (E I du Pont de Nemours and Company, priority 2009, dated 2015):

Key:
Type in all cases: in vivo
[1] = tested on: Surinam grass (Brachiaria decumbens); assay: Test B pre-/postemergence plant response; conditions: for Plant response rating, Surinam Grass: Postemergence, scale 0 to 100 (0 no effect, 100 complete control)
Description: (§1) Seeds of plant species selected from blackgrass (Alopecurus myosuroides), downy bromegrass (Bromus tectorum), green foxtail (Setaria viridis), Italian ryegrass (Lolium multiflorum), wheat (Triticum aestivum), wild oat (Avena fatua), deadnettle (henbit deadnettle, Lamium amplexicaule), galium (catchweed bedstraw, Galium aparine), bermudagrass (Cynodon dactylon), Surinam grass (Brachiaria decumbens), cocklebur (Xanthium strumarium), corn (Zea mays), large crabgrass (Digitaria sanguinalis), woolly cupgrass (Eriochloa villosa), giant foxtail (Setaria faberii), goosegrass (Eleusine indica), johnsongrass (Sorghum halepense), kochia (Kochia scoparia), lambsquarters (Chenopodium album), morningglory (Ipomoea coccinea), nightshade (eastern black nightshade, Solanum ptycanthum), yellow nutsedge (Cyperus esculentus), pigweed (Amaranthus retroflexus), ragweed (common ragweed, Ambrosia elatior), Russian thistle (Salsola kali), soybean (Glycine max), sunflower (common oilseed sunflower, Helianthus annuus) and velvetleaf (Abutilon theophrasti) were planted into a blend of loam soil and sand and treated preemergence with test compounds formulated in a non-phytotoxic solvent mixture which included a surfactant.
(§2) At the same time, plants selected from these crop and weed species and also winter barley (Hordeum vulgare), canarygrass (Phalaris minor), chickweed (Stellaria media) and windgrass (Apera spica-venti) were planted in pots containing Redi-Earth® planting medium (Scotts Company, 14111 Scottslawn Road, Marysville, Ohio 43041) comprising spaghnum peat moss, vermiculite, wetting agent and starter nutrients and treated with postemergence applications of some of the test chemicals formulated in the same manner. Plants ranged in height from 2 to 18 cm (1- to 4-leaf stage) for postemergence treatments.
(§3) Treated plants and controls were maintained in a greenhouse for 13 to 15 days, after which time all treated plants were visually evaluated and compared to controls. Plant response ratings, summarized in Table B, are based on a scale of 0 to 100 where 0 is no effect and 100 is complete control. A dash (-) response means no test result.

[2] = tested on: blackgrass (Alopecurus myosuroides); assay: Test B pre-/postemergence plant response
Description: as §1, §2, §3

[3] = tested on: cocklebur (Xanthium strumarium); assay: Test B pre-/postemergence plant response
Description: as §1, §2, §3

kochia (Kochia scoparia) = assay: Test B pre-/postemergence plant response
Description: as §1, §2, §3

[4] = tested on: lambsquarters (Chenopodium album); assay: Test B pre-/postemergence plant response
Description: as §1, §2, §3

[5] = tested on: pigweed (Amaranthus retroflexus); assay: Test B pre-/postemergence plant response
Description: as §1, §2, §3

soybean (Glycine max) = assay: Test B pre-/postemergence plant response; conditions: for Plant response rating, Soybean: Postemergence, scale 0 to 100 (0 no effect, 100 complete control)
Description: as §1, §2, §3

[6] = tested on: velvetleaf (Abutilon theophrasti); assay: Test B pre-/postemergence plant response; conditions: for Plant response rating, Velvetleaf: Postemergence, scale 0 to 100 (0 no effect, 100 complete control)
Description: as §1, §2, §3

[7] = tested on: wheat (Triticum aestivum); assay: Test B pre-/postemergence plant response
Description: as §1, §2, §3

wild oat (Avena fatua) = assay: Test B pre-/postemergence plant response
Description: as §1, §2, §3

[8] = tested on: canarygrass (Phalaris minor); assay: Test B postemergence plant response
How it was run: (§4)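 Plants at the 1- to 4-leaf stage (2 to 18 cm tall), grown in pots of peat moss/vermiculite medium with wetting agent and starter nutrients, received postemergence applications of test chemicals. After 13 to 15 days in a greenhouse, injury was rated visually against untreated controls on a 0 (no effect) to 100 (complete control) scale.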

[9] = tested on: chickweed (Stellaria media); assay: Test B postemergence plant response
How it was run: as §4

[10] = tested on: windgrass (Apera spica-venti); assay: Test B postemergence plant response
How it was run: as §4

[11] = 62 g ai/ha, postemergence, 0 is no effect, 100 is complete control, 13 to 15 days
[12] = 31 g ai/ha, postemergence, scale 0 to 100, 0 is no effect, 100 is complete control
[13] = Postemergence, 125 g ai/ha, scale 0 to 100 (0 no effect, 100 complete control)
[14] = Postemergence, 250 g ai/ha, scale 0 to 100 (0 no effect, 100 complete control)

CCCCn1c(-c2cc(F)cc(F)c2)ncc(C(=O)C2=C(O)CCCC2=O)c1=O [Compound 121]
Surinam Grass plant response rating (0 to 100 scale) [1, 11]: 100
Plant response rating, Surinam Grass ([1]; 125 g ai/ha): 100
Plant response rating, Surinam Grass ([1]; 250 g ai/ha): 100
Plant response rating, Blackgrass [2, 12]: 5
Blackgrass plant response rating (0 to 100 scale) [2, 11]: 40
Plant response rating, Blackgrass [2, 13]: 40
Plant response rating, Blackgrass [2, 14]: 60
Plant response rating, Cocklebur [3, 12]: 40
Cocklebur plant response rating (0 to 100 scale) [3, 11]: 45
Plant response rating, Cocklebur [3, 13]: 85
Plant response rating, Cocklebur [3, 14]: 100
Plant response rating, Kochia (kochia (Kochia scoparia); [12]): 95
Kochia plant response rating (0 to 100 scale) (kochia (Kochia scoparia); [11]): 100
Plant response rating, Kochia (kochia (Kochia scoparia); [14]): 100
Plant response rating, Lambsquarters [4, 12]: 95
Lambsquarters plant response rating (0 to 100 scale) [4, 11]: 100
Plant response rating, Lambsquarters [4, 13]: 100
Plant response rating, Lambsquarters [4, 14]: 100
Plant response rating, Pigweed [5, 12]: 100
Pigweed plant response rating (0 to 100 scale) [5, 11]: 100
Plant response rating, Pigweed [5, 13]: 100
Plant response rating, Pigweed [5, 14]: 100
Soybean plant response rating (0 to 100 scale) (soybean (Glycine max); [11]): 90
Plant response rating, Soybean (soybean (Glycine max); 125 g ai/ha): 95
Plant response rating, Soybean (soybean (Glycine max); 250 g ai/ha): 100
Velvetleaf plant response rating (0 to 100 scale) [6, 11]: 98
Plant response rating, Velvetleaf ([6]; 125 g ai/ha): 100
Plant response rating, Velvetleaf ([6]; 250 g ai/ha): 100
Wheat plant response rating (0 to 100 scale) [7, 11]: 45
Plant response rating, Wheat [7, 13]: 45
Plant response rating, Oat, Wild (wild oat (Avena fatua); [12]): 60
Oat, Wild plant response rating (0 to 100 scale) (wild oat (Avena fatua); [11]): 90
Plant response rating, Oat, Wild (wild oat (Avena fatua); [13]): 98
Plant response rating, Oat, Wild (wild oat (Avena fatua); [14]): 98
Plant response rating, Canarygrass [8, 12]: 0
Canarygrass plant response rating (0 to 100 scale) [8, 11]: 5
Plant response rating, Canarygrass [8, 13]: 5
Plant response rating, Canarygrass [8, 14]: 30
Plant response rating, Chickweed [9, 12]: 100
Chickweed plant response rating (0 to 100 scale) [9, 11]: 100
Plant response rating, Chickweed [9, 13]: 100
Plant response rating, Chickweed [9, 14]: 100
Windgrass plant response rating (0 to 100 scale) [10, 11]: 98
Plant response rating, Windgrass [10, 13]: 100
